{
  "source": "patent US10806790B1",
  "about": "“Pain therapy cream with deep tissue delivery system” (priority 2013, dated 2020)",
  "key": {"[1]": {"system": "symptoms of primary osteoarthritis (OA) of the knee", "experiment": "12-week randomized, double-blind, double-dummy, parallel-group comparative study; WOMAC osteoarthritis index (VAS) efficacy", "format": "in vivo, patients (men and nonpregnant women)", "description": "(§1) The purpose of this study was to compare the safety and efficacy of a topical cream (CellMedics®) containing 0.075% w/w capsaicin and 5% w/w Harpagophytum extract vs. oral diclofenac 50 mg tablets over a 12-week treatment course in relieving the symptoms of primary osteoarthritis (OA) of the knee, in a randomized, double-blind, double-dummy, parallel-group study. Eligible patients included men and nonpregnant women between the ages of 45-75 with symptomatic OA of the knee of at least three months duration. All patients had knee OA as defined by the American College of Rheumatology global functional class I, II, or III. […] Concomitant use of other analgesic medications was prohibited during the study. The protocol was a 12-week, randomized, double-blind, double-dummy, parallel-group comparative study. Patients were assessed at the initial screening visit and those who met the entry criteria discontinued NSAID treatment for a washout period of 3-10 days before the baseline visit. Following the screening and washout periods, each eligible patient attending the baseline visit was assigned a numbered study kit at the clinic. Study kits contained one of 2 randomly assigned treatments: (1) vehicle cream (CellMedics®) containing 0.075% w/w capsaicin and 5% w/w Harpagophytum extract (topical Harpagophytum) plus oral placebo tablet; or (2) diclofenac 50 mg tablet (oral diclofenac) plus a topical placebo cream (vehicle cream with no actives). Patients were instructed to apply a single 3 g measured dose of cream (150 mg of Harpagophytum and 2.25 mg of capsaicin in the active cream) from a metered pump dispenser around the affected knee and take a study tablet orally, 3 times daily for 12 weeks. […] The WOMAC osteoarthritis index, version 3.1 visual analog scale (VAS) was used to assess response to treatment at baseline and after week 12. Patients answered the WOMAC subscales of pain, stiffness, and physical function using a 48 hour recall period. For WOMAC, the VA scales were (best) 0-100 (worst). Safety analyses were conducted on all patients randomized into the trial. At week 12 visits, adverse events (AE) were recorded. The differences between baseline and week 12 were used to analyze changes in WOMAC scores. Statistical significance was assumed at p<0.05. The effect size was calculated by dividing the mean change from baseline with the standard deviation at baseline. Percent improvement was calculated by dividing week 12 change scores by baseline scores."}, "[2]": {"system": "patients with primary osteoarthritis (OA) of the knee", "experiment": "Same 12-week study; safety analysis, incidence of drug-related adverse events", "description": "as §1"}, "[3]": {"details": "mean change from baseline divided by the standard deviation at baseline, week 12"}, "[4]": {"details": "mean, WOMAC VA scale (best) 0-100 (worst), 12 weeks, 3 times daily, n = 36"}, "[5]": {"details": "week 12 change score divided by baseline score"}, "[6]": {"details": "both, human, in vivo, po, 12 weeks"}},
  "data": [
    {"compound": "O=C(O)Cc1ccccc1Nc1c(Cl)cccc1Cl", "note": "[Oral Diclofenac, diclofenac]", "values": [
      {"measurement": "WOMAC Pain, Effect size", "setting": "[1]; [3]", "result": 1.04},
      {"measurement": "WOMAC Physical Function, Effect size", "setting": "[1]; [3]", "result": 0.99},
      {"measurement": "WOMAC Stiffness, Effect size", "setting": "[1]; [3]", "result": 0.90},
      {"measurement": "WOMAC Pain, Baseline - week 12 change score", "setting": "[1]; [4]", "result": "−22.87"},
      {"measurement": "WOMAC Physical Function, Baseline - week 12 change score", "setting": "[1]; [4]", "result": "−21.87"},
      {"measurement": "WOMAC Stiffness, Baseline - week 12 change score", "setting": "[1]; [4]", "result": "−21.65"},
      {"measurement": "WOMAC Pain, % Improvement", "setting": "[1]; [5]", "result": 48.77, "unit": "%"},
      {"measurement": "WOMAC Physical function, % Improvement", "setting": "[1]; [5]", "result": 45.91, "unit": "%"},
      {"measurement": "WOMAC Stiffness, % Improvement", "setting": "[1]; [5]", "result": 44.86, "unit": "%"},
      {"measurement": "Erythema (application site adverse event), number of patients", "setting": "[2]; 12 weeks, n = 36, oral diclofenac group used placebo cream", "result": "One"},
      {"measurement": "severity of dry skin at application site", "setting": "[2]; all cases", "result": "mild and transient"},
      {"measurement": "Abdominal pain (GI adverse event), number of patients", "setting": "[2]; both, human, in vivo, 12 weeks", "result": 8},
      {"measurement": "Constipation (GI adverse event), incidence", "setting": "[2]; both, human, in vivo, 12 weeks", "result": "(8.3%)"},
      {"measurement": "Constipation (GI adverse event), number of patients", "setting": "[2]; both, human, in vivo, 12 weeks", "result": 3},
      {"measurement": "Diarrhea (GI adverse event), incidence", "setting": "[2]; both, human, in vivo, 12 weeks", "result": "(16.7%)"},
      {"measurement": "Diarrhea (GI adverse event), number of patients", "setting": "[2]; both, human, in vivo, 12 weeks", "result": 6},
      {"measurement": "Dyspepsia (GI adverse event), incidence", "setting": "[2]; both, human, in vivo, 12 weeks", "result": "(25.0%)"},
      {"measurement": "Dyspepsia (GI adverse event), number of patients", "setting": "[2]; both, human, in vivo, 12 weeks", "result": 9},
      {"measurement": "Edema (other adverse event), number of patients", "setting": "[2]; both, human, in vivo, 12 weeks", "result": 3},
      {"measurement": "Flatulence (GI adverse event), incidence", "setting": "[2]; both, human, in vivo, 12 weeks", "result": "(16.7%)"},
      {"measurement": "Flatulence (GI adverse event), number of patients", "setting": "[2]; both, human, in vivo, 12 weeks", "result": 6},
      {"measurement": "Headache (other adverse event), number of patients", "setting": "[2]; both, human, in vivo, 12 weeks", "result": 2},
      {"measurement": "Nausea (GI adverse event), incidence", "setting": "[2]; both, human, in vivo, 12 weeks", "result": "(11.1%)"},
      {"measurement": "Nausea (GI adverse event), number of patients", "setting": "[2]; both, human, in vivo, 12 weeks", "result": 4},
      {"measurement": "time to resolution of mild redness (erythema)", "setting": "[2]; both, human, in vivo, 12 weeks", "result": "≤ 24", "unit": "h"},
      {"measurement": "Blisters (application site adverse event), incidence", "setting": "[2]; [6]", "result": "(0.0%)"},
      {"measurement": "Blisters (application site adverse event), number of patients", "setting": "[2]; [6]", "result": 0},
      {"measurement": "Dry Skin (application site adverse event), number of patients", "setting": "[2]; [6]", "result": 1},
      {"measurement": "Erythema (application site adverse event), number of patients", "setting": "[2]; [6]", "result": 1},
      {"measurement": "Pruritis (application site adverse event), incidence", "setting": "[2]; [6]", "result": "(0.0%)"},
      {"measurement": "Pruritis (application site adverse event), number of patients", "setting": "[2]; [6]", "result": 0}
    ]}
  ]
}
